One molecule from patent publication US9999672B2, “Pharmaceutical compositions of fumaric acid esters” (XenoPort, Inc., priority 2014, dated 2018) can be followed below.

The format of data set [1] is physicochemical. As to conditions: 2.1 h. The protocol: Approximately 50 mg (N,N-Diethylcarbamoyl)methyl methyl (2E)but-2-ene-1,4-dioate powder was spread into a thin layer in open quartz containers. The sample was then placed in an ICH2 Photoreactor (Luzchem Research Inc.) with 16 near-UV fluorescent lamps (Hitachi FL8BL-B) installed. The near-UV light (320-400 nm) power was 94.2 watt/m^2. The sample was taken out after 2.1 hours to achieve a light exposure of 200 watt hour/m^2. The sample was prepared and analyzed the same way as described in Example 1. The amount of compound (1) found was 10.3 wt %.

The format of data set [2] is physicochemical. As to conditions: 53 h, 0.1 mg/mL, pH 4. The method, then:
A quartz flask containing approximately 20 mL of 0.1 mg/mL (N,N-diethylcarbamoyl)methyl methyl (2E)but-2-ene-1,4-dioate in 50 mM pH 4.0 citrate buffer was placed in an ICH2 Photoreactor (Luzchem Research Inc.) with 16 cool white fluorescent lamps (F8T5/CW-8 Watt) installed. The light power was 22.8×10^3 lux with low level of near UV light (320-400 nm) at 2.2 watt/m^2. The sample was taken out after 53 hours to achieve a light exposure of 1.2 million lux hours.
To quantify the photodegratation of the (N,N-diethylcarbamoyl)methyl methyl (2E)but-2-ene-1,4-dioate powder, the presence of (N,N-diethylcarbamoyl)methyl methyl (2Z)but-2-ene-1,4-dioate (“compound (2)”) was quantified. The structure for compound (2) is shown below:
The sample was analyzed using the same HPLC method as described in Example 1. The amount of compound (2) found was 22.3 wt %.

Data set [3] is classed as physicochemical. As to conditions: 53 h. The method, then: Approximately 50 mg (N,N-diethylcarbamoyl)methyl methyl (2E)but-2-ene-1,4-dioate powder was spread into a thin layer (˜1 mm) in open quartz containers. The sample was then placed in an ICH2 Photoreactor (Luzchem Research Inc.) with 16 cool white fluorescent lamps (F8T5/CW-8 Watt) installed. The light power was 22.8×10^3 lux with low level of near UV light (320-400 nm) at 2.2 watt/m^2. The sample was taken out after 53 hours to achieve a light exposure of 1.2 million lux hours. The sample solution was prepared at 0.2 mg/mL in diluent (water/acetonitrile/H3PO4 (80/20/0.05 by volume)).
To quantify the photodegratation of the (N,N-diethylcarbamoyl)methyl methyl (2E)but-2-ene-1,4-dioate powder, the presence of (N,N-diethylcarbamoyl)methyl (1S,3S,2R,4R)-2-{[(N,N-diethylcarbamoyl)methyl]oxycarbonyl}-3,4-bis(methoxycarbonyl)cyclobutanecarboxylate (“compound (1)”) was quantified. The structure of compound (1) is shown below:
The amount (weight percent) of compound (1) in the sample was determined by reverse phase HPLC using a C18 column and a 30-minute gradient method according to Table 1 where Mobile Phase A is water/0.05% H3PO4 and Mobile Phase B is water/acetonitrile/H3PO4 (10/90/0.05 by volume) with UV detection at 210 nm. The amount of compound (1) found was 29.0 wt %.

Like-named read-outs stand apart in the source and are kept apart here.

As to `CCN(CC)C(=O)COC(=O)/C=C/C(=O)OC` [(N,N-Diethylcarbamoyl)methyl methyl (2E)but-2-ene-1,4-dioate], the “amount of compound (1) found (photodegradant)” value in data set [1] was determined as 10.3 wt %; in data set [3] it was 29.0 wt %. Besides, in data set [2], the “amount of compound (2) found (2Z isomer photodegradant)” value amounted to 22.3 wt %.
